Numbers after ± are expanded uncertainties.
Settings: 298.15 K; 101.33 kPa; Liquid

Compound	mass density [kg/m3]
ClCCCl [1,2-dichloroethane]	1246.34 ± 0.6
ClCCBr [1-bromo-2-chloroethane]	1727.01 ± 2.2
ClCBr [bromochloromethane]	1924.55 ± 1.9
BrCBr [dibromomethane]	2478.36 ± 3.1
CCCO [propan-1-ol]	799.74 ± 0.49
